Key:
HEp-2 cells [1] = test: Competitive inhibition of HEp-2 cell attachment to (SPKR)4inv coated wells; format: cell-based, human; settings: wells coated with (SPKR)4inv
Protocol: (§1) Cells were harvested with trypsin-EDTA and resuspended in medium containing soybean trypsin inhibitor. After centrifugation, the cell pellet was resuspended in medium containing 20 mM HEPES pH 7.5, 4 g/l BSA. For inhibition studies, 3×10^4 cells were incubated with increasing concentrations of SPKR4-inv protein for 30 min at 22° C.

HEp-2 cells [2] = test: Competitive inhibition of HEp-2 cell attachment to fibronectin coated wells; format: cell-based, human
Protocol: as §1

Substance | ID30 (concentration of competitor that results in 30% inhibition of cell attachment) (HEp-2 cells [1]) | ID30 compared with (SPKR)4inv (HEp-2 cells [2]; fibronectin coated wells) | ID30 (concentration of competitor that results in 30% inhibition of cell attachment) (HEp-2 cells [2]; wells coated with fibronectin)
A3β1: Recombinant soluble α3β1 integrin (Eble, 1998) | 0.050 µM |  | 
RGDS | 170 µM | three orders of magnitude higher | 170 µM
